Laboratory results from US20100113332A1, “METHOD OF TREATING AN INFLAMMATORY DISEASE BY DOUBLE STRANDED RIBONUCLEIC ACID” (NASTECH PHARMACEUTICAL COMPANY INC., priority 2004, published 2010).

Key:
[1] = test system: TNF-α mRNA; assay: TNF-α knockdown in human monocytes (branch DNA);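 note: LPS-activated human CD14+ monocytes, TNF-α mRNA read by branched DNA assay and normalized to cypB mRNA, knockdown compared with random-sequence Qneg siRNA as negative control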
Excerpt: For mRNA measurement, branch DNA technology from Genospectra (CA) was used according to manufacturer's specification. Human monocytes (CD14+) treated with LPS induce TNF-α-specific mRNA within approximately 2 hrs, followed by peak levels of TNF-α protein 2 hrs later. siRNAs were screened for knockdown activity by transfecting monocytes with siRNA candidate sequences using Lipofectamine 2000, treating infected cells with LPS, and measuring TNF-α mRNA levels approximately 16 hrs later.
To quantitate mRNA level in the cells, both house keeping gene (cypB) and target gene (TNF-α) mRNA were measured, and the reading for TNF-α was normalized with cypB to obtain relative luminescence unit.
Qneg represents a random siRNA sequence and functions as the negative control in these experiments.

[2] = test system: mouse tail fibroblast (MTF) cells; assay type: cell-based; conditions: peptide/siRNA complex
Method: (§2) Cells were plated the day before so that they were ˜50-80% confluent at time of transfection. For complexes, siRNA and peptide were diluted in Opti-MEM® media (Invitrogen), then mixed and allowed to complex 5-10 minutes before adding to cells washed with PBS. Final concentration of siRNA was 500 nM at each peptide concentration (2-50 μM). The conjugate, also diluted in Opti-MEM® media, was added to cells at final concentrations ranging from 62.5 nM to 500 nM. At 500 nM concentration, we also combined with 20% FBS just before adding to washed cells. Cells were transfected for 3 hours at 37° C., 5% CO2. Cells were washed with PBS, treated with trypsin and then analyzed by flow cytometry. siRNA uptake was measured by intensity of Cy5 fluorescence and cellular viability assessed by addition of propidium iodide.
The materials and methods used for the experiments performed in 9L/LacZ cells and mouse fibroblast cells are generally the same as described above, except that for the murine experiments, 9L/LacZ cells were replaced with mouse tail fibroblasts.

[3] = test system: 9L/LacZ cells; assay: siRNA uptake by flow cytometry in 9L/LacZ cells; assay type: cell-based, rat; conditions: peptide/siRNA complex
Method: as §2
Uptake was measured using 9L/lacZ cells transfected as described in Example 2. Cells were washed with PBS, treated with trypsin and then analyzed by flow cytometry. siRNA uptake was measured by intensity of FAM fluorescence and cellular viability assessed by addition of propidium iodide.

[4] = test system: human TNF-α transgenic mice; assay: RA paw score in human TNF-α transgenic mice; conditions: for RA progression by paw score at week 8 (FIG. 4): siRNA delivered with PN73
Method: For human TNF-α animal disease models, two transgenic models were used. The tg197 mice were acquired from Pasteur Hellenic Institute (Athens, Greece), and the B6.SJL-Tg(TNF) N21 mice were purchased from Taconic, Inc. (Germantown, N.Y.). The genotypes of both human TNF-α transgenic mouse models were performed by suppliers. […] All treatments were by tail vein injection twice a week. […] A similar dose regimen was used for B6.SJL-Tg(TNF) N21 mice. Clinical scores were based on a previously described scoring system (2, 3) as follows: 0 (normal), 1 (edema or distortion of paw or ankle joints), 2 (distortion of paw and ankle joints), or 3 (ankylosis of wrist or ankle joints). The sum of all four paws was scored twice a week with a maximum score of 12 per mouse.
For Hellenic transgenic mice, RA scores were determined (blinded to treatment) using the following criteria: 0, normal; 1, edema or distortion of paw or ankle joints; 2 distortion of paw and ankle joints; 3, ankylosis of wrist or ankle joints.
Human NF-α expressing mice were purchase from the Hellenic Pasture Institute, Greece) at 5 weeks old. […] During the injection periods, plasma samples were collected for ELISA testing (R&D Systems, Cat#SSTA00C), and paw scores were taken twice a week as an accepted index of RA disease progression and therapeutic efficacy (Table 19).
Due to the difference in the starting point (some animals present with scores at earlier points), the scores have been adjusted to 0 for all animals in the experiments. Each paw is given a score between 0 and 3, with the highest score of 12, according to the following scoring index. • 0: Normal • 1: edema or distortion of paw or ankle joints • 2: distortion of paw and ankle joints • 3: ankylosis of wrist or ankle joints.

[5] = test system: interferon response markers (IL-1β, INF-α, IL-6, IL-8, IL-12, MIP-1α, IFN-γ, TNF-α); assay: interferon responsiveness, marker protein ELISA; assay type: cell-based; conditions: for Relative protein expression level of IFN-γ / Relative protein expression level of IL-12 / Relative protein expression level of INF-α: Lipofectamine transfection; for interferon response (ELISA): regardless of transfection reagent
Method: (§1) Interferon responsiveness was assayed by ELISA (protein) and bDNA (mRNA levels).

[6] = test system: TNF-α protein; assay: TNF-α protein ELISA in human monocytes; assay type: cell-based; conditions: siRNA screen with Lipofectamine 2000, LPS-activated monocytes
Method: Human monocytes (CD14+) treated with LPS induce TNF-α-specific mRNA within approximately 2 hrs, followed by peak levels of TNF-α protein 2 hrs later. siRNAs were screened for knockdown activity by transfecting monocytes with siRNA candidate sequences using Lipofectamine 2000, treating infected cells with LPS, and measuring TNF-α mRNA levels approximately 16 hrs later.
To quantitate mRNA level in the cells, both house keeping gene (cypB) and target gene (TNF-α) mRNA were measured, and the reading for TNF-α was normalized with cypB to obtain relative luminescence unit. To quantify protein level, the TNF-α ELISA from BD Bioscience was used according to manufacturer's specification.

[7] = test system: 9L/LacZ cells; assay: beta-galactosidase knockdown assay of siRNA transfection efficiency; assay type: cell-based, rat; conditions: Histone H2B plus siRNA
Method: For H3, H4 and H2b, a series of experiments was performed to complex these polynucleotide delivery-enhancing polypeptides with siRNA in different ratios. Generally this was initiated with a 1:0.01 to 1:50 of siRNA/histone ratio. To each well in a 96-well microtiter plate, 40 pm siRNA was added. Each well contained beta-gal cells at 50% confluency.
Transfections were performed with either regular siRNA or siRNA complexed with one of the above-identified histone proteins on 9L/beta-gal cells. The siRNA was designed to specifically knock down beta-galactosidase mRNA, and activities are expressed as percentage of beta-gal activities from control (control cells were transfected using lipofectamine without the polynucleotide delivery-enhancing polypeptide).
For beta-galactosidase assays, 9L/LacZ cells, a cell line constitutively expressing beta-galactosidase, were used. 9L/LacZ cells are rat gliosarcoma fibroblast cells that constitutively express LacZ and were obtained from ATCC (#CRL-2200). […]
The transfection efficiency inversely correlates with the amount of beta-galactosidase activity measured from the cell lysate. Upon transfection, a measured decrease in beta-galactosidase activity indicates a successful transfection. Thus, in the absence of transfection, the measured beta-galactosidase activity is 100% and the transfection efficiency is 0%. […]

[8] = test system: IL-1β mRNA; assay: interferon responsiveness, IL-1β mRNA (bDNA); assay type: cell-based; conditions: siRNA complexed with lipofectamine; 100 nM or 200 nM for TNF-α9
Method: as §1

[9] = test system: human TNF-α; assay: plasma human TNF-α by ELISA in human TNF-α transgenic mice; assay type: in vivo, mouse; conditions: average of the mice
Method: For determination of TNF-α level, For the analysis of experiments involving transgenic mice, plasma samples were separated from whole blood collected by orbital bleeding. Plasma levels of hTNF-α were determined by ELISA at a 1:2 dilution according to the manufacturer's instructions (R&D systems, Minneapolis, Minn.).
For Taconic mice, TNF-α levels in plasma were determined by ELISA (R&D systems, Minneapolis, Minn.) and treatment schedules were same as Hellenic transgenic hTNF-αtransgenic mice.

[10] = siRNA 4 nM complexed with 1.6 uM PN73
[11] = siRNA 4 nM complexed with 1.6 uM PN509
[12] = siRNA 20 nM complexed with 0.5 uM PN250
[13] = siRNA 20 nM complexed with 0.75 uM PN250
[14] = siRNA 20 nM complexed with 1 uM PN250

AACCAAUGCCCUCCUGGCCAA (siRNA; delivered as complex with delivery-enhancing peptide, further chemistry not given here) [LC14]
KD (%) TNF-α [1, 10]: 50.76% | KD (%) TNF-α [1, 11]: 42.78%

AACCCAUGUGCUCCUCACCCA (siRNA; delivered as complex with delivery-enhancing peptide, further chemistry not given here) [LC8]
KD (%) TNF-α [1, 10]: 41.24% | KD (%) TNF-α [1, 11]: 47.35%

AACCUCCUCUCUGCCAUCAAG (siRNA; delivered as complex with delivery-enhancing peptide, further chemistry not given here) [LC3]
KD (%) TNF-α [1, 10]: 23.17% | KD (%) TNF-α [1, 11]: 30.14%

AACUGAAAGCAUGAUCCGGGA (siRNA; delivered as complex with delivery-enhancing peptide, further chemistry not given here) [LC4]
KD (%) TNF-α [1, 10]: 26.67% | KD (%) TNF-α [1, 11]: 22.71%

AAGCCUGUAGCCCAUGUUGUA (siRNA; delivered as complex with delivery-enhancing peptide, further chemistry not given here) [LC19]
KD (%) TNF-α [1, 10]: 61.83% | KD (%) TNF-α [1, 11]: 56.38%

AAGCUCCAGUGGCUGAACCGC (siRNA; delivered as complex with delivery-enhancing peptide, further chemistry not given here) [LC9]
KD (%) TNF-α [1, 10]: 40.32% | KD (%) TNF-α [1, 11]: 58.20%

AAGGGUGACCGACUCAGCGcU (siRNA; as printed in the source, key not given here) [LC6]
KD (%) TNF-α [1, 10]: 44.10% | KD (%) TNF-α [1, 11]: 50.19%

AAUCAGCCGCAUCGCCGUCUC (siRNA; delivered as complex with delivery-enhancing peptide, further chemistry not given here) [LC7]
KD (%) TNF-α [1, 10]: 42.76% | KD (%) TNF-α [1, 11]: 56.11%

AAUCGGCCCGACUAUCUCGACUU (chemistry not given here) [LC1]
KD (%) TNF-α [1, 10]: 20.08% | KD (%) TNF-α [1, 11]: 31.13%

AAUCUCGACUUUGCCGAGUCU (chemistry not given here) [LC5]
KD (%) TNF-α [1, 10]: 46.78% | KD (%) TNF-α [1, 11]: 34.93%

AAUGGCGUGGAGCUGAGAGAU (siRNA; delivered as complex with delivery-enhancing peptide, further chemistry not given here) [LC2]
KD (%) TNF-α [1, 10]: 19.06% | KD (%) TNF-α [1, 11]: 37.04%

AAVALLPAVLLALLAPRKKRRQRRRPPQC [PN27]
Percent Uptake Primary MTF Cells [2]: 61% | Percent Uptake LacZ Cells [3]: 86%

C(YGRKKRRQRRRG)2 [PN204]
Percent Uptake LacZ Cells [3]: 83%

CCAGGGACCUCUCUCUAAU (siRNA; delivered as complex with delivery-enhancing peptide, further chemistry not given here) [TNF-4]
KD (%) TNF-α [1, 12]: 0.90% | KD (%) TNF-α [1, 13]: 14.39% | KD (%) TNF-α [1, 14]: 26.47%

CCGACUCAGCGCUGAGAUCAA (siRNA; chemistry not fully specified) [LC17]
Relative effect of siRNA, paw score ([4]; group TNF #6): Overall low paw score. YC12 | KD (%) TNF-α [1, 10]: 50.78% | KD (%) TNF-α [1, 11]: 48.94% | Relative protein expression level of IFN-γ [5]: Background | Relative protein expression level of IL-12 [5]: Background | Relative protein expression level of INF-α [5]: Background | interferon response (ELISA) [5]: no interferon response

CCUCAGCCUCUUCUCCUUCCUGA (chemistry not given here) [LC12]
KD (%) TNF-α [1, 10]: 40.61% | KD (%) TNF-α [1, 11]: 17.03%

CUGAUUAAGUUGUCUAAACAA (siRNA; delivered as complex with delivery-enhancing peptide, further chemistry not given here) [LC16]
KD (%) TNF-α [1, 10]: 55.91% | KD (%) TNF-α [1, 11]: 40.06%

CUUGUGAUUAUUUAUUAUUUA (siRNA; delivered as complex with delivery-enhancing peptide, further chemistry not given here) [LC18]
KD (%) TNF-α [1, 10]: 63.44% | KD (%) TNF-α [1, 11]: 58.13%

GCAGGUCUACUUUGGGAUC (siRNA; delivered as complex with delivery-enhancing peptide, further chemistry not given here) [YC18]
KD (%) TNF-α [1, 12]: 20.72% | KD (%) TNF-α [1, 13]: 17.82% | KD (%) TNF-α [1, 14]: 24.66%

GCCCGACUAUCUCGACUUU (siRNA; delivered as complex with delivery-enhancing peptide, further chemistry not given here) [YC17]
KD (%) TNF-α [1, 12]: 17.30% | KD (%) TNF-α [1, 13]: 29.82% | KD (%) TNF-α [1, 14]: 24.68%

GCCUGUACCUCAUCUACUC (siRNA; chemistry not fully specified) [YC12]
Relative effect of siRNA, paw score ([4]; group TNF #6): Overall low paw score. YC12 | KD (%) TNF-α [1, 10]: 43.60% | KD (%) TNF-α [1, 11]: 64.37% | KD (%) TNF-α [1, 12]: 17.06% | KD (%) TNF-α [1, 13]: 21.66% | KD (%) TNF-α [1, 14]: 15.91%

GCCUGUAGCCCAUGUUGUA (chemistry not given here) [TNF-α-2]
RA progression by paw score at week 8 (FIG. 4) [4]: delayed RA progression

GCGUGGAGCUGAGAGAUAA (chemistry not given here) [TNF-α-1]
TNF-α mRNA knockdown ([1]; siRNA screen with Lipofectamine 2000, LPS-activated monocytes): 50% | reduction in TNF-α protein level [6]: 75%

GCGUGGAGCUGAGAGAUAA (siRNA; delivered as complex with delivery-enhancing peptide, further chemistry not given here) [YC11]
KD (%) TNF-α [1, 12]: 13.70% | KD (%) TNF-α [1, 13]: 21.09% | KD (%) TNF-α [1, 14]: 33.10%

Histone H2B
measured beta-galactosidase activity [7]: 37.97%

NH2-LLETLLKPFQCRICMRNFSTRQARRNHRRRHRR-amide (H-LLETLLKPFQCRICMRNFSTRQARRNHRRRHRR-NH2; cysteine pairing not given here) [PN202]
Percent Uptake LacZ Cells [3]: 71%

NH2-RKKRRQRRRPPQCAAVALLPAVLLALLAP-amide (H-RKKRRQRRRPPQCAAVALLPAVLLALLAP-NH2) [PN28]
Percent Uptake Primary MTF Cells [2]: 81% | Percent Uptake LacZ Cells [3]: 79%

UAGCCCAUGUUGUAGCAAA (siRNA; delivered with peptide PN73, further chemistry not given here) [TNF-α9]
Relative effect of siRNA, effectiveness relative to Ramicade by week 8 ([4]; group TNF #7): LC20 and TNF-α9 are more | RA progression by paw score at week 8 (FIG. 4) [4]: delayed RA progression | IL-1β mRNA levels [8]: significant increase | Relative protein expression level of IFN-γ [5]: Background | Relative protein expression level of IL-12 [5]: Background | Relative protein expression level of INF-α [5]: Background | IL-1β, IL-6 and MIP-1α protein expression levels ([5]; transfection with lipofectamine): increase

UAGGGUCGGAACCCAAGCUUA [LC20]
delay in RA progression relative to lower doses ([4]; 2 mg/kg LC20, PN73 1:5): greatest relative observed delay in RA progression | Relative effect of siRNA, effectiveness relative to Ramicade ([4]; group TNF #1 (LC20, Ramicade, PBS)): LC20 is as effective as | Relative effect of siRNA, paw score ([4]; group TNF #4): Overall low paw score | Relative effect of siRNA, paw score ([4]; group TNF #6): Overall low paw score. YC12 | Relative effect of siRNA, effectiveness relative to Ramicade by week 8 ([4]; group TNF #7): LC20 and TNF-α9 are more | Relative effect of siRNA, effectiveness relative to Ramicade by week 11 ([4]; group TNF #7): week 8; LC20 is equally | RA progression by paw score at week 8 (FIG. 4) [4]: delayed RA progression | TNF-α knockdown activity (FIG. 6-C) ([1]; absence of PN73, 0-2.5 nM): little knockdown activity | KD (%) TNF-α [1, 10]: 42.68% | KD (%) TNF-α [1, 11]: 71.12% | KD (%) TNF-α [1, 12]: −3.80% | KD (%) TNF-α [1, 13]: 10.72% | KD (%) TNF-α [1, 14]: 26.53% | decrease in TNF-α gene expression relative to Qneg control (FIG. 6-B) ([1]; siRNA complexed with PN73 1:1, 0-2.5 nM): ~30% | Relative protein expression level of IFN-γ [5]: Background | Relative protein expression level of IL-12 [5]: Background | Relative protein expression level of INF-α [5]: Background | interferon response (ELISA) [5]: no interferon response

infliximab [Ramicade]
Quantity of TNF-α protein in blood plasma by ELISA ([9]; age 7 weeks): 102.24 pg/mL | Quantity of TNF-α protein in blood plasma by ELISA ([9]; age 8 weeks): 39.27 pg/mL | Quantity of TNF-α protein in blood plasma by ELISA ([9]; age 9 weeks): 25.80 pg/mL | RA score (paw and joint inflammation) ([4]; twice weekly from age 6 weeks, effect beginning at age 7 weeks): RA score stabilization
